Measured values taken from the supplement of paper PMC10307832.

The cell lines below were run with CC1=CC(=CC=C1)NC2=NC(=CS2)C3=CC=NC=C3 + CS(=O)(=O)N1CCN(Cc2cc3nc(-c4cccc5[nH]ncc45)nc(N4CCOCC4)c3s2)CC1 [Pictilisib] (partner 1 µM) (assay: relative viability (nuclei count vs DMSO), 5 days (fraction); higher = more cells survive). Settings: first compound 8 µM.
Summary of the method: (§1)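 Lung cancer cell lines, seeded in 1536-well plates, were treated the following day by pin tool with a single drug or with five library-drug doses (not always all listed) in √10 steps on top of a fixed anchor-drug dose. Cells were fixed and nuclei stained in one step after 5 days, and nuclei were counted. Relative viability is the nuclei count for treated wells divided by that for vehicle wells, reported as medians of duplicate plates.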

Cell Line | relative viability
RERF-LC-KJ | 0.497

Each cell line was assayed with Cc1ccc(NC(=O)c2ccc(CN3CCN(C)CC3)cc2)cc1Nc1nc(-c2cccnc2)cs1 [Masitinib] + CS(=O)(=O)CCNCc1ccc(-c2ccc3ncnc(Nc4ccc(OCc5cccc(F)c5)c(Cl)c4)c3c2)o1 [Lapatinib] (partner 2 µM) in the same assay as above. Settings: first compound 0.01 µM.
Summary of the method: as §1

Cell Line | relative viability
201T | 0.763
NCI-H1975 | 0.941
HCC-827 | 0.198
NCI-H1299 | 0.922
NCI-H2347 | 0.826
NCI-H1355 | 0.691
NCI-H650 | 0.927
CAL-12T | 0.612
NCI-H1666 | 0.677
EPLC-272H | 0.948
NCI-H23 | 0.889
NCI-H1437 | 0.661
NCI-H322M | 0.55
NCI-H1563 | 0.945
NCI-H1792 | 0.721
NCI-H2085 | 0.732
HCC-15 | 0.561
PC-3 [JPC-3] | 0.474
LC-2-ad | 0.762
NCI-H1650 | 0.607
NCI-H2170 | 0.269
NCI-H1993 | 0.438
SK-LU-1 | 0.928
ABC-1 | 1.54
SK-MES-1 | 0.473
NCI-H661 | 0.52
RERF-LC-KJ | 0.94

Same assay, conditions: first compound 0.03162 µM

Cell Line | relative viability
201T | 1.01
NCI-H1975 | 0.876
HCC-827 | 0.189
NCI-H1299 | 0.961
NCI-H2347 | 0.911
NCI-H1355 | 0.94
NCI-H650 | 0.859
CAL-12T | 0.729
NCI-H1666 | 0.657
EPLC-272H | 0.898
NCI-H23 | 0.829
NCI-H1915 | 1.06
NCI-H1437 | 0.755
NCI-H322M | 0.623
NCI-H1563 | 0.941
NCI-H1792 | 0.405
NCI-H2085 | 0.736
HCC-15 | 0.919
NCI-H1944 | 0.743
PC-3 [JPC-3] | 0.416
EKVX | 0.165
LC-2-ad | 1.02
NCI-H1650 | 0.761
NCI-H2170 | 0.275
SK-LU-1 | 0.853
ABC-1 | 1.15
SK-MES-1 | 0.426
NCI-H661 | 0.229
RERF-LC-KJ | 0.705

Same assay, conditions: first compound 0.1 µM

Cell Line | relative viability
201T | 0.811
NCI-H1975 | 0.992
HCC-827 | 0.19
NCI-H1299 | 0.991
NCI-H2347 | 0.821
NCI-H1355 | 0.807
NCI-H650 | 1.09
CAL-12T | 0.745
NCI-H1666 | 0.706
EPLC-272H | 0.951
NCI-H23 | 1.16
NCI-H1915 | 0.678
NCI-H1437 | 0.798
NCI-H322M | 0.573
NCI-H1563 | 0.969
NCI-H1792 | 0.874
NCI-H2085 | 0.839
HCC-15 | 0.677
NCI-H1944 | 0.584
PC-3 [JPC-3] | 0.462
EKVX | 0.198
LC-2-ad | 0.874
NCI-H1650 | 0.746
NCI-H2170 | 0.267
NCI-H1993 | 0.913
SK-LU-1 | 1.04
ABC-1 | 1.21
SK-MES-1 | 0.518
NCI-H661 | 0.566
RERF-LC-KJ | 0.83

Same assay, conditions: first compound 0.3162 µM

Cell Line | relative viability
201T | 0.882
NCI-H1975 | 0.824
HCC-827 | 0.168
NCI-H1299 | 0.976
NCI-H2347 | 0.833
NCI-H1355 | 0.781
NCI-H650 | 1.07
CAL-12T | 0.592
NCI-H1666 | 0.428
EPLC-272H | 0.914
NCI-H23 | 1.19
NCI-H1915 | 1.06
NCI-H1437 | 0.832
NCI-H322M | 0.603
NCI-H1563 | 0.945
NCI-H1792 | 0.846
NCI-H2085 | 0.703
HCC-15 | 0.917
NCI-H1944 | 0.695
PC-3 [JPC-3] | 0.367
EKVX | 0.158
LC-2-ad | 0.994
NCI-H1650 | 0.774
NCI-H2170 | 0.264
NCI-H1993 | 0.776
SK-LU-1 | 0.986
ABC-1 | 1.37
SK-MES-1 | 0.386
NCI-H661 | 0.492
RERF-LC-KJ | 0.73

Same assay, conditions: first compound 1 µM

Cell Line | relative viability
201T | 1.03
NCI-H1975 | 0.828
HCC-827 | 0.201
NCI-H1299 | 0.945
NCI-H2347 | 0.948
NCI-H1355 | 0.951
NCI-H650 | 1.1
CAL-12T | 0.499
NCI-H1666 | 0.557
EPLC-272H | 0.827
NCI-H23 | 1.09
NCI-H1915 | 0.984
NCI-H1437 | 0.728
NCI-H322M | 0.53
NCI-H1563 | 0.732
NCI-H1792 | 0.995
NCI-H2085 | 0.664
HCC-15 | 0.852
NCI-H1944 | 0.906
PC-3 [JPC-3] | 0.422
EKVX | 0.196
LC-2-ad | 0.962
NCI-H1650 | 0.612
NCI-H2170 | 0.262
NCI-H1993 | 0.678
SK-LU-1 | 0.779
ABC-1 | 1.16
SK-MES-1 | 0.45
NCI-H661 | 0.41
RERF-LC-KJ | 0.719
